Test results from patent US11730714B2, “Compounds for the treatment of neuromuscular disorders” (NMD PHARMA A/S, priority 2017, dated 2023).

Assays:
rat soleus muscles = assay: Mg2+ concentration required to depress nerve-stimulated force by 50% (Kd,Mg2+), combination with 3,4-AP; type: cell-based; settings: combination of C8 and 3,4-diaminopyridine; elevated extracellular Mg2+
Procedure: FIGS. 6A-6E. […] Muscles from 4-week-old rats were stimulated to contract by activating the motor nerve with short duration pulses in field stimulation. Muscles contracted every 10 min for 2 s in response to 30 Hz stimulation. Four different experimental conditions were used. […] C) similar to A) but this muscle had been pre-incubated with 3,4-AP. […] The force integral (AUC) was determined at each extracellular Mg^2+ concentration. AUC was plotted against Mg^2+ concentration and the data was fitted to a sigmoidal function. This provided the extracellular Mg^2+ concentration that was required to reduce the nerve-stimulated force to 50% (Mg50) under the four different conditions (see Table 5).
While the use of tubocurarine mimics conditions with reduced neuromuscular transmission due to post-synaptic dysfunction (myasthenia gravis, neuromuscular blockade), the experiments with elevated extracellular Mg^2+ mimics conditions with pre-synaptic dysfunction akin to a range of neuromuscular disorders including Lambert Eaton syndrome, motor neuron disorders and polyneuropathy. […] Based on this it was determined whether recovery of nerve-stimulated force at elevated extracellular Mg^2+ with CIC-1 inhibiting compounds could be added to force recovery with 3,4-AP. […] To quantify the effect of compounds on Mg^2+ sensitivity the force at the different Mg^2+ concentrations was determined. […]

human CIC-1 channels = molecular target: T1, human CIC-1 channels (Homo sapiens, UniProt P35523); assay: Automated patch-clamp on human CIC-1 expressed in CHO cells (shift in half activation voltage V1/2); type: cell-based; settings: compound in intracellular solution vs vehicle control patches; CHO cells expressing human ClC-1
T1 construct: host or cells: CHO (Chinese hamster ovary) cells, cryopreserved, used directly after thawing
Procedure: FIG. 13A-13B: FIG. 13A illustrates the voltage protocol used to evoke currents in whole cell patches of CHO cells expressing human CIC-1 channels.
The investigatory goal of these experiments was to evaluate how compounds affect the open probability and current amplitude of human CIC-1 channels expressed in CHO cells. Experiments were performed using an automated patch clamp system that allowed high throughput testing of whole cell patches together with both intracellular and extracellular addition of compound.
Automated whole cell patch clamp experiments were performed with the Qpatch 16 system (Sophion Bioscience, Ballerup, Denmark) at room temperature. Data acquisition and analysis were performed in the Qassay software (ver. 5.6, Odense).
To obtain tail currents, the membrane potential was stepped to −100 mV after each test voltage for 300 ms and then relaxed to −30 mV for 2 sec between sweeps (FIG. 3). I/V relationships for whole cell instant and steady state current amplitudes were obtained by plotting average current densities at the beginning and at the end of the 300 ms step against the membrane potential (FIG. 4).
In order to determine the relative overall open probability (Po), the instantaneous tail currents were normalized to the maximal tail current obtained following the most positive voltage step and plotted against the test voltage. Plots of normalized tail currents from each whole cell patch were then fitted to a Boltzmann function allowing determination of half activation voltages (V1/2, FIG. 5).
Osmolality adjusted to […] using sucrose.
Intracellular solutions contained: 80 mM […], 60 mM CsCl, 5/1 mM KOH/EGTA, 10 mM HEPES, 10 mM NaCl, pH adjusted to 7.2 with NaOH (2 M). Osmolality adjusted to ˜320 mOsm using sucrose.
Cells used in patch clamp experiments were Chinese hamster ovary cells (CHO) constitutively expressing human CIC-1 channels. The amino acid sequence encoded by the cDNA used to create this cell line was identical to the translated sequence for GenBank accession number NM_000083.2. Cells were produced by Charles River (Catalogue CT6175, Cleveland Ohio, USA) in a cryopreserved format. Experiments were performed on the cells directly after thawing (3×10^6 cells used in each experiment).
To evaluate the compound effect on CIC-1, when applied directly to the intracellular side of the cell membrane, the half activation voltage, V1/2, was determined from whole cell patches with compound added to the intracellular solution and then compared to V1/2 determined from control cell patches with only vehicle added to the intracellular solution. Additionally, the effect of extracellular added compound was evaluated by determine V1/2 and steady state current amplitudes before and after exchanging the extracellular solution to contain compound.
The difference in half activation voltage of CIC-1 channels, […]V1/2, was determined as the difference between the cell patches treated intracellularly with compound and control cells patches and is reported in Table 4 below. A positive shift in […]V1/2 is reflecting CIC-1 channel inhibition by the tested compound. P-values of <0.05 is considered significant.

Lewis rats = assay: In situ muscle contractile characteristics: isometric hindlimb force in rats under Cisatracurium infusion; type: in vivo, rat; settings: 20 mg/kg i.v.
Procedure: Isometric hindlimb force was measured in 12-week old female Lewis rats in the presence and absence of compound.
Rats were placed under anesthesia with isoflurane (2-4%), intubated and subsequently connected to a micro ventilator (Microvent 1, Hallowell EMC, US). Two stimulation electrodes were inserted through the skin to stimulate the sciatic nerve. A small incision was made proximal to the ankle, to expose the Achilles tendon, which was tied by cotton string, and connected to a force transducer (Fort250, World Precision Instruments) with adjustable position (Vernier control). The Achilles tendon was then cut distal to the attached cotton string. […]
Muscle contractile properties were assessed by applying an electrical current (under supramaximal voltage conditions) to the nerve and recording the force generated by the muscle. The muscle was stretched until maximal force was obtained, when assessed by 2 Hz stimulation. Isometric force was measured every 30 seconds at 12 Hz (Twitch), 10 pulses, and at every 5 minutes at 80 Hz (Tetanic) for 1 second (80 pulses). […] The effect of test article was assessed on its ability to increase force generated from the stimulation pattern applied. The effect was assessed in the ability to increase force per se (tetanic, 80 Hz, stimulation), and the ratio between individual twitch peaks (12 Hz stimulation). […]

T1 sequence (P35523 whole entry): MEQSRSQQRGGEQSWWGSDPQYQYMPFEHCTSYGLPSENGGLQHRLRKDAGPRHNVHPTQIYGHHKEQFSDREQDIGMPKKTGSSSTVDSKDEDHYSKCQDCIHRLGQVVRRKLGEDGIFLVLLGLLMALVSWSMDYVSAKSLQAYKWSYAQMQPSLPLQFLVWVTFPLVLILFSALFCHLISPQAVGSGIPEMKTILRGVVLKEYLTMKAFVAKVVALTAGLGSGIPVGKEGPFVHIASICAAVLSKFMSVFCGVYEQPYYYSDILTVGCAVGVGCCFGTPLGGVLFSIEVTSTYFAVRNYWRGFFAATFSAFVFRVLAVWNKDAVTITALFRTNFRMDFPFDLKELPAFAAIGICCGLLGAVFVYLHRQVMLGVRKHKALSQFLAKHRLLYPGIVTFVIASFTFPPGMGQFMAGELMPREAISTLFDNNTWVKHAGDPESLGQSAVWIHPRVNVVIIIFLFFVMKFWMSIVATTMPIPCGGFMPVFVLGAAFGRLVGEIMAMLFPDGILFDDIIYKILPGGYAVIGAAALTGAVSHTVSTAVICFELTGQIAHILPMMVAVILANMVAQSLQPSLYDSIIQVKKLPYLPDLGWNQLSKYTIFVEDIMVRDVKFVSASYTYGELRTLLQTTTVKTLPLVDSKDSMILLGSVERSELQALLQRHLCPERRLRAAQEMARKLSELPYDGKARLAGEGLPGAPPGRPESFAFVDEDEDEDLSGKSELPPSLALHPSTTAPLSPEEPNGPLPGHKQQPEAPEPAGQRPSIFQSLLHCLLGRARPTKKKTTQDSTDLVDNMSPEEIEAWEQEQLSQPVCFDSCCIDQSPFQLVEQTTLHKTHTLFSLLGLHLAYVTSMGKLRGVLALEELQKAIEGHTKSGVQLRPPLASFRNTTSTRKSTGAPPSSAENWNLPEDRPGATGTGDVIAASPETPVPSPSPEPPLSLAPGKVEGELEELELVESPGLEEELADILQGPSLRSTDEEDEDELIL

| ΔV½ (difference in half activation voltage of ClC-1) (human CIC-1 channels) [mV] | Compound | effect on recovery of neuromuscular transmission (rat soleus muscles) | average increase in twitch peaks (Lewis rats; 12 Hz stimulation) [%] | average increase in tetanic force (Lewis rats; 80 Hz stimulation) [%] |
| --- | --- | --- | --- | --- |
|  | C[C@H](Oc1ccc(Br)cc1)C(=O)O [Compound C8, (2S)-2-(4-bromophenoxy)propanoic acid] | unexpected synergistic effect |  |  |
| 20.0 | (2S)-2-(4-bromophenoxy)(2-^2H)butanoic acid [Compound A-60] |  | 18.5 | 52.7 |
